The values below come from patent US12391666B2, “Indoline-1-formamide compound, preparation method therefor, and medical use thereof” (Beijing Innocare Pharma Tech Co., Ltd., priority 2018, dated 2025).

Molecules are shown by their SMILES.

Assay type in all cases: biochemical
One experiment deals with VEGFR2 (Homo sapiens (Human), UniProt P35968). The experiment in a line: VEGFR2 activity inhibition testing (HTRF in vitro kinase assay). The conditions noted are these: humanized recombinant VEGFR2 protein, 3.5 μM ATP. As to the method:
The IC50 value of the compound is calculated from 8 concentration points with the XLfit (ID Business Solutions Ltd., UK) software through the following equation: Y=Bottom+(Top−Bottom)/(1+10^((log IC50−X)*slope factor)) • where Y is the inhibition percentage, X is the logarithm of the concentration of the test compound, Bottom is the maximum inhibition percentage, Top is the minimum inhibition percentage, and slope factor is the slope coefficient of the curve. VEGFR2 Activity Inhibition Testing
An in vitro kinase assay was used to evaluate the effect of the compounds of the present invention on VEGFR2 activity.
(§1) The experimental method is summarized as follows:
The in vitro activity of VEGFR2 was determined by detecting the phosphorylation level of the substrate in the kinase reaction using a homogeneous time-resolved fluorescence (HTRF) kinase detection kit (Cisbio, catalog number 62TKOPEC). The reaction buffer contains an enzyme reaction buffer (1×) provided in the kit, 5 mM MgCl2, 1 mM MnCl2, 1 mM DTT, 0.01% BSA and 0.005% Tween 20. The humanized recombinant VEGFR2 protein (Cat. No. 10012-H20B1) was purchased from Sino Biological Inc., and diluted to a 0.3 ng/μL kinase solution with the reaction buffer. The substrate reaction solution includes 0.3 μM biotin-labeled tyrosine kinase substrate and 3.5 μM ATP which were diluted with the reaction buffer. The assay buffer includes 0.1 ng/μL Eu^3+ labeled cage antibody and 18.75 nM streptavidin labeled XL665 (Cisbio, catalog number 610SAXLB) which were diluted with the reaction buffer.
The compound was dissolved and diluted to 10 μM in 100% DMSO, then a 4-fold serial dilution was performed with DMSO to the lowest concentration of 0.61 nM, and each concentration point was diluted 40-fold with the reaction buffer.
4 μL of Compound solution and 2 μL of VEGFR2 kinase solution were added to a 384-well detection plate (Corning, catalog number 4512), mixed uniformly and incubated at room temperature for 15 minutes. Then 4 μL of the substrate reaction solution was added, and the reaction mixture was incubated at room temperature for 30 minutes. Then 10 μL of the assay buffer equal to the volume of the reaction was added, mixed uniformly and allowed to stand at room temperature for 30 minutes, and then the reaction progress was detected with an Envision plate reader (Perkin Elmer) at wavelengths of 620 nm and 665 nm. The ratio of 665/620 is positively correlated with the phosphorylation degree of the substrate, thereby detecting the activity of VEGFR2 kinase. In this experiment, the group without VEGFR2 kinase protein was used as a negative control (100% inhibition), and the group with VEGFR2 kinase protein but no compound was used as a positive control (0% inhibition). The inhibition percentage of the compound on VEGFR2 activity can be calculated using the following equation: Percentage of inhibition=100−100*(signal value of test compound at a specific concentration−signal value of negative control)/(signal value of positive control—signal value of negative control)
(§2) The IC50 value of the compound is calculated from 8 concentration points with the XLfit (ID Business Solutions Ltd., UK) software through the following equation: Y=Bottom+(Top−Bottom)/(1+10^((log IC50−X)*slope factor)) • where Y is the inhibition percentage, X is the logarithm of the concentration of the test compound, Bottom is the maximum inhibition percentage, Top is the minimum inhibition percentage, and slope factor is the slope coefficient of the curve. VEGFR3 Activity Inhibition Testing
A general note: Time-resolved FRET reads energy transfer from a long-lived donor to a nearby acceptor.

Another experiment addresses VEGFR1 (Homo sapiens (Human), UniProt P17948). The experiment in a line: VEGFR1 activity inhibition testing (HTRF in vitro kinase assay). The note with it: humanized recombinant VEGFR1 protein, 0.8 μM ATP. As to the method: VEGFR1 Activity Inhibition Testing
An in vitro kinase assay was used to evaluate the effect of the compounds of the present invention on VEGFR1 activity.
as §1
The in vitro activity of VEGFR1 was determined by detecting the phosphorylation level of the substrate in the kinase reaction using a homogeneous time-resolved fluorescence (HTRF) kinase detection kit (Cisbio, catalog number 62TKOPEC). The reaction buffer contains an enzyme reaction buffer (1×) provided in the kit, 5 mM MgCl2, 1 mM MnCl2, 1 mM DTT. […]
4 μL of Compound solution and 2 μL of VEGFR1 kinase solution were added to a 384-well detection plate (Corning, catalog number 4512), mixed uniformly and incubated at room temperature for 15 minutes. […] Then 10 μL of the assay buffer equal to the volume of the reaction was added, mixed uniformly and allowed to stand at room temperature for 30 minutes, and then the reaction progress was detected with an Envision plate reader (Perkin Elmer) at wavelengths of 620 nm and 665 nm. […] The inhibition percentage of the compound on VEGFR1 activity can be calculated using the following equation: Percentage of inhibition=100−100*(signal value of test compound at a specific concentration−signal value of negative control)/(signal value of positive control−signal value of negative control) […]

The target in the next experiment is VEGFR3 (Homo sapiens (Human), UniProt P35916). The experiment in a line: VEGFR3 activity inhibition testing (HTRF in vitro kinase assay). The note with it: humanized recombinant VEGFR3 protein, 0.4 μM ATP. As to the method:
as §2
An in vitro kinase assay was used to evaluate the effect of the compounds of the present invention on VEGFR3 activity.
as §1
The in vitro activity of VEGFR3 was determined by detecting the phosphorylation level of the substrate in the kinase reaction using a HTRF kinase detection kit (Cisbio, catalog number 62TK0PEC). […]
4 μL of Compound solution and 2 μL of VEGFR3 kinase solution were added to a 384-well detection plate (Corning, catalog number 4512), mixed uniformly and incubated at room temperature for 15 minutes. […] Then 10 μL of the assay buffer equal to the volume of the reaction was added, mixed uniformly and allowed to stand at room temperature for 30 minutes, and then the reaction progress was detected with an Envision plate reader (Perkin Elmer) at wavelengths of 620 nm and 665 nm. […]

The term IC50 denotes the concentration that gives 50% inhibition.

VEGFR2, sequence (P35968 20-1356): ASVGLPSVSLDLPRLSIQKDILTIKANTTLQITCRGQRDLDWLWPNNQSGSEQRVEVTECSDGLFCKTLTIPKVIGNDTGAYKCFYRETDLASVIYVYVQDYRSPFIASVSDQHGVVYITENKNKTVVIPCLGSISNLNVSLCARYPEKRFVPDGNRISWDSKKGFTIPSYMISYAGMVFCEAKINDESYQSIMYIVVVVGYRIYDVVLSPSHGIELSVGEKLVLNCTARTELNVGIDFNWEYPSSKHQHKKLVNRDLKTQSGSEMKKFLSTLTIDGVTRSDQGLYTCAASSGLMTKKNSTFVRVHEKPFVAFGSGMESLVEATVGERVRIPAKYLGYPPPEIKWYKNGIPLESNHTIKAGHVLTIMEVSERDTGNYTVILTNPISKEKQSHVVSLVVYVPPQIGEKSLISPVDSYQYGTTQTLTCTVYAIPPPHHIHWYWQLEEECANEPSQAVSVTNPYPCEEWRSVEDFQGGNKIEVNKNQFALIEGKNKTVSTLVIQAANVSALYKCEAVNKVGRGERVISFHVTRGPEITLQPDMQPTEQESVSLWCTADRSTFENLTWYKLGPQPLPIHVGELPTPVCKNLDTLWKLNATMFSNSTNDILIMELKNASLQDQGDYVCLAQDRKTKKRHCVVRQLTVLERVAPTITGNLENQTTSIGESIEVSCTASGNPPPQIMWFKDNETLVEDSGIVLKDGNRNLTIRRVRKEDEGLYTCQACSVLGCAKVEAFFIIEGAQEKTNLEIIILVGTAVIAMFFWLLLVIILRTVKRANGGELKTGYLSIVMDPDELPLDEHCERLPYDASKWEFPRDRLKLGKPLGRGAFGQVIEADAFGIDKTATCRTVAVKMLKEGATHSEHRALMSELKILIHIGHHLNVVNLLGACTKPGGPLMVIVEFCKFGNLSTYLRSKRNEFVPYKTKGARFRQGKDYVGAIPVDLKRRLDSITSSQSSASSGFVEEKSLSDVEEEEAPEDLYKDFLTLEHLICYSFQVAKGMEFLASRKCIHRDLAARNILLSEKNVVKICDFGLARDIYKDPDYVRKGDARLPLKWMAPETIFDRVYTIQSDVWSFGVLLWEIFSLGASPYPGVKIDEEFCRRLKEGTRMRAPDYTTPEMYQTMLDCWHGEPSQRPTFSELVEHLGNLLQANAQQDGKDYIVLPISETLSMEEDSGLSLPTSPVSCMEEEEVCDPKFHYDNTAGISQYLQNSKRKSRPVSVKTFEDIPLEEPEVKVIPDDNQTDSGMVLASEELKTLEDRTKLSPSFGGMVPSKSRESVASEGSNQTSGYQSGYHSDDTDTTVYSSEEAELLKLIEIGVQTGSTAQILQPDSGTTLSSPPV
VEGFR3, sequence (P35916 25-1363): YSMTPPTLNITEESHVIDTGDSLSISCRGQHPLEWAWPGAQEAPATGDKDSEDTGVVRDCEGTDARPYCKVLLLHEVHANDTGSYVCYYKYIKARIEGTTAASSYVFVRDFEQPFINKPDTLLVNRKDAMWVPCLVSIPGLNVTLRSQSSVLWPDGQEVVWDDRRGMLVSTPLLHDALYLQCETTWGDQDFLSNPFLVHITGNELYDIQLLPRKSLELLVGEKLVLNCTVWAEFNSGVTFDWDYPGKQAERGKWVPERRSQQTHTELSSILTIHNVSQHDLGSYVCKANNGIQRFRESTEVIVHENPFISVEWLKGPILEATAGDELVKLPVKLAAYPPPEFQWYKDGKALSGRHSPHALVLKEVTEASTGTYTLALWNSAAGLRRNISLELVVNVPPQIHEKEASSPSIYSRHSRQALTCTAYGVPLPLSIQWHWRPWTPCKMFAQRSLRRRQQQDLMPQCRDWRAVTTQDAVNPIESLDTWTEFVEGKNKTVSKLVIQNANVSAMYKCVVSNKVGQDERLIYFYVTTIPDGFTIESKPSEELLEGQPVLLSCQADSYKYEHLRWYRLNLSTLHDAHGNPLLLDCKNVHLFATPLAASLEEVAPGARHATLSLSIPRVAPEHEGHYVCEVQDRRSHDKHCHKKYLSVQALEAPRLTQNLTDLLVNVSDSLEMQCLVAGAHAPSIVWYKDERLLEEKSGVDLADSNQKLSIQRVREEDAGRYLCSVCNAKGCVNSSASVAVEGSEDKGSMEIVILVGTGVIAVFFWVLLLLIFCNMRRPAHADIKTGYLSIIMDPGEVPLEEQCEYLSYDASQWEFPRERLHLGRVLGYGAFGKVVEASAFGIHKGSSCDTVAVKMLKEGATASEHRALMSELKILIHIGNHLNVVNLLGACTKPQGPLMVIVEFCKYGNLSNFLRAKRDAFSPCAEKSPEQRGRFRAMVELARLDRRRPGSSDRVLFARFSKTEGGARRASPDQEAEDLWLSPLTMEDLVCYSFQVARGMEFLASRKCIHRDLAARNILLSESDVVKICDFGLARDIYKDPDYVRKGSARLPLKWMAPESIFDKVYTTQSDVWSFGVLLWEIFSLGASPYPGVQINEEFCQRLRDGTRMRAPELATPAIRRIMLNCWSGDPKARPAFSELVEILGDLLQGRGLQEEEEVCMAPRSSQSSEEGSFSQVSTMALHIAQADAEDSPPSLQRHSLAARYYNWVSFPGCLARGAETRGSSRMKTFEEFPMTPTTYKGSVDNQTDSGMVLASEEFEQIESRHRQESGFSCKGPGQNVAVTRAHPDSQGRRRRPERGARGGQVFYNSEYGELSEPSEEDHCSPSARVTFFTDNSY
VEGFR1, sequence (P17948 27-1338): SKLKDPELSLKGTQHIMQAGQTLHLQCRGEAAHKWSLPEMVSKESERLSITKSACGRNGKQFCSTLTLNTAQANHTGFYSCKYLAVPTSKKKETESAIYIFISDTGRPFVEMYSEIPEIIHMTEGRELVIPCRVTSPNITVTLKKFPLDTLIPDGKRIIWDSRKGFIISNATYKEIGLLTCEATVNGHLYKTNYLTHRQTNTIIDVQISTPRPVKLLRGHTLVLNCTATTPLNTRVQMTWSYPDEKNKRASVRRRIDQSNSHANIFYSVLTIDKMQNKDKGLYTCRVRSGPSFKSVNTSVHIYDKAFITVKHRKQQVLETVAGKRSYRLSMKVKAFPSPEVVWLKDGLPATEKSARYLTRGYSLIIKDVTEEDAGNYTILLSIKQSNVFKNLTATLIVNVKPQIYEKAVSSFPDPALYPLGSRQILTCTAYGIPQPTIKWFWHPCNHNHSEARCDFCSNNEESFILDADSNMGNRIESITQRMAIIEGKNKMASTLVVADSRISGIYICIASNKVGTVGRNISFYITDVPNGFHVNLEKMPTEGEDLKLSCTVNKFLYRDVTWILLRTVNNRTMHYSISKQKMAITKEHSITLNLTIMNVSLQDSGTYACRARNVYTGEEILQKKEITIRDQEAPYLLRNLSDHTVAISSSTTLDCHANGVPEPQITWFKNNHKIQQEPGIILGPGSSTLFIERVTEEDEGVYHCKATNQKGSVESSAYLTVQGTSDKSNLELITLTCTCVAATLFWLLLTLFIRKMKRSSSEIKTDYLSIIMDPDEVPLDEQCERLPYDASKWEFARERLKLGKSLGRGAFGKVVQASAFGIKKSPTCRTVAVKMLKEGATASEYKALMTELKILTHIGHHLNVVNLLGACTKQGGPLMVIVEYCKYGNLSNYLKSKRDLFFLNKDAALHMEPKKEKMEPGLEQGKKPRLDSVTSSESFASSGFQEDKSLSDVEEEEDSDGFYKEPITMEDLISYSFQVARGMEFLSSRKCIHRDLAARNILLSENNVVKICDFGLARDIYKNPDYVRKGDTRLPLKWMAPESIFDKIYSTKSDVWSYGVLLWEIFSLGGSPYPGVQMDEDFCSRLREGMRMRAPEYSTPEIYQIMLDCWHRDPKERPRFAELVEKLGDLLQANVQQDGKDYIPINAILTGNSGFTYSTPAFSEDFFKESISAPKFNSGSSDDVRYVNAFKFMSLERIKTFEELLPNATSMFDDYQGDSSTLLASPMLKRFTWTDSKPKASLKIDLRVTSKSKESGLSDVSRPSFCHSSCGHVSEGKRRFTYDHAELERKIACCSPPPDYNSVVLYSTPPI

On to `CNC(=O)N1CCc2cc(Oc3ccnc4cc(OC)c(C(N)=O)cc34)ccc21` [Compound 3, 7-methoxy-4-((1-(methylcarbamoyl)indolin-5-yl)oxy)quinoline-6-carboxamide], for which the IC50 at VEGFR2 lay in the range of 0.01 to 0.1 µM. Consider `COc1cc2nccc(Oc3ccc4c(c3)CCN4C(=O)NC3CC3)c2cc1C(N)=O` [Compound 1, 4-((1-(cyclopropylcarbamoyl)indolin-5-yl)oxy)-7-methoxyquinoline-6-carboxamide], for which the values for the IC50 on VEGFR1, on VEGFR2 and at VEGFR3 were 0.01 to 0.1 µM, below 0.01 µM and below 0.01 µM, respectively. With `COc1cc2nccc(Oc3ccc4c(c3)CCN4C(=O)NC3CC3)c2cc1OC` [Compound 5, N-cyclopropyl-5-((6,7-dimethoxyquinolin-4-yl)oxy)indoline-1-carboxamide], on VEGFR2, the IC50 is 0.01 to 0.1 µM. On the same count and under the same terms, in the case of `COc1cc2nccc(Oc3ccc4c(c3)CCN4C(=O)Nc3ccc(F)cc3)c2cc1C(N)=O` [Compound 4, 4-((1-((4-fluorophenyl)carbamoyl)indolin-5-yl)oxy)-7-methoxyquinoline-6-carboxamide] it was below 0.01 µM; in that of `NC(=O)c1cc2c(Oc3ccc4c(c3)CCN4C(=O)NC3CC3)ccnc2cc1O` [Compound 2, 4-((1-(cyclopropylcarbamoyl)indolin-5-yl)oxy)-7-hydroxyquinoline-6-carboxamide], 0.01 to 0.1 µM. On the same count and under the same terms, in the case of `COc1cc2nccc(Oc3ccc4c(c3)CCN4C(=O)Nc3cc(C)on3)c2cc1C(N)=O` [Compound 6, 7-methoxy-4-((1-((5-methylisoxazol-3-yl)carbamoyl)indolin-5-yl)oxy)quinoline-6-carboxamide] it was below 0.01 µM.
